Results: ChEMBL document CHEMBL6182857, “Targeting biofilm formation in Candida albicans with halogenated pyrrolopyrimidine derivatives” (Eur J Med Chem, 2025)
Active and inactive are the calls of the source. The rule behind the calls is not given here.

Tests used:
Candida albicans [1] = experiment: Antibiofilm activity against fluconazole-resistant Candida albicans DAY185 assessed as inhibition of biofilm formation at 7 ug/ml measured after 24 hrs by crystal violet staining based analysis relative to control; assay type: functional
Brassica rapa = experiment: Toxicity in Brassica rapa assessed as seed germination rate at 10 to 100 ug/ml treated for 4 days relative to control; assay type: organism-based; conditions: in vivo, 96 h, at 10 to 100 µg/mL, dose 10-100 µg/ml, time 4 day
Candida albicans [2] = experiment: Inhibition of yeast to hypha transition in fluconazole-resistant Candida albicans DAY185 assessed as decrease in hyphal adhesion at 5 to 20 ug/ml measured after 24 hrs by SEM analysis; assay type: functional, organism-based; conditions: dose 5-20 µg/ml
Candida albicans [3] = experiment: Antibiofilm activity against Candida albicans KCCM 12552 assessed as inhibition of biofilm formation by crystal violet staining based analysis; assay type: functional, organism-based
Candida albicans [4] = experiment: Downregulation of HWP1 mRNA level in fluconazole-resistant Candida albicans DAY185 assessed as fold decrease at 50 ug/ml incubated for 6 hrs by qRT-PCR analysis relative to control; assay type: functional; conditions: dose 50.0 µg/ml
Candida albicans [5] = experiment: Upregulation of ZAP1 mRNA level in fluconazole-resistant Candida albicans DAY185 assessed as fold increase at 50 ug/ml incubated for 6 hrs by qRT-PCR analysis relative to control; assay type: functional; conditions: dose 50.0 µg/ml
Candida albicans [6] = experiment: Inhibition of yeast to hypha transition in fluconazole-resistant Candida albicans DAY185 assessed as decrease in germ tube formation at 5 to 20 ug/ml measured after 24 hrs by SEM analysis; assay type: functional, organism-based; conditions: dose 5-20 µg/ml
Candida albicans [7] = experiment: Upregulation of YWP1 mRNA level in fluconazole-resistant Candida albicans DAY185 assessed as fold increase at 50 ug/ml incubated for 6 hrs by qRT-PCR analysis relative to control; assay type: functional; conditions: dose 50.0 µg/ml
Candida albicans [8] = experiment: Antibiofilm activity against fluconazole-resistant Candida albicans DAY185 assessed as inhibition of biofilm formation at 5 ug/ml measured after 24 hrs by 2D/3D imaging analysis; assay type: functional, organism-based; conditions: dose 5.0 µg/ml
Candida albicans [9] = experiment: Inhibition of yeast to hypha transition in fluconazole-resistant Candida albicans DAY185 assessed as decrease in filamentous growth at 5 to 20 ug/ml measured after 24 hrs by SEM analysis; assay type: functional, organism-based; conditions: dose 5-20 µg/ml
Candida albicans [10] = experiment: Upregulation of CDR11 mRNA level in fluconazole-resistant Candida albicans DAY185 assessed as fold increase at 50 ug/ml incubated for 6 hrs by qRT-PCR analysis relative to control; assay type: functional; conditions: dose 50.0 µg/ml
[Candida] auris [11] = Antibiofilm activity against Candida auris KCTC 17809 assessed as inhibition of biofilm formation by crystal violet staining based analysis; assay type: functional, organism-based; conditions: Candidozyma auris
Candida albicans [12] = experiment: Effect on UME6 mRNA level in fluconazole-resistant Candida albicans DAY185 at 50 ug/ml incubated for 6 hrs by qRT-PCR analysis; assay type: functional; conditions: dose 50.0 µg/ml
Candida albicans [13] = experiment: Upregulation of GST3 mRNA level in fluconazole-resistant Candida albicans DAY185 assessed as fold increase at 50 ug/ml incubated for 6 hrs by qRT-PCR analysis relative to control; assay type: functional; conditions: dose 50.0 µg/ml
Candida albicans [14] = experiment: Inhibition of yeast to hypha transition in fluconazole-resistant Candida albicans DAY185 assessed as decrease in cell aggregation at 5 to 20 ug/ml measured after 24 hrs by SEM analysis; assay type: functional, organism-based; conditions: dose 5-20 µg/ml
Candida albicans [15] = experiment: Inhibition of yeast to hypha transition in fluconazole-resistant Candida albicans DAY185 assessed as decrease in hyphal development at >=10 ug/ml measured after 24 hrs by SEM analysis relative to control; assay type: functional; conditions: dose >= 10 µg/ml
[Candida] auris [16] = Antibiofilm activity against Candida auris KCTC 17810 assessed as inhibition of biofilm formation by crystal violet staining based analysis; assay type: functional, organism-based; conditions: Candidozyma auris
Candida albicans [17] = experiment: Antibiofilm activity against fluconazole-resistant Candida albicans DAY185 assessed as inhibition of biofilm formation at 5 ug/ml measured after 24 hrs by crystal violet staining based analysis; assay type: functional, organism-based; conditions: dose 5.0 µg/ml
Candida albicans [18] = experiment: Upregulation of IFD6 mRNA level in fluconazole-resistant Candida albicans DAY185 assessed as fold increase at 50 ug/ml incubated for 6 hrs by qRT-PCR analysis relative to control; assay type: functional; conditions: dose 50.0 µg/ml
Candida albicans [19] = experiment: Antibiofilm activity against fluconazole-resistant Candida albicans DAY185 assessed as inhibition of biofilm formation on bio-compatible PLGA surface coated with compound at 5 to 10 ug/ml incubated for 24 hrs by CLSM analysis; assay type: functional, organism-based; conditions: dose 5-10 µg/ml
[20] = Toxicity in Caenorhabditis elegans assessed as nematode survival at higher concentrations treated for 10 days; conditions: 240 h, time 10 day
Candida albicans [21] = experiment: Upregulation of UCF1 mRNA level in fluconazole-resistant Candida albicans DAY185 assessed as fold increase at 50 ug/ml incubated for 6 hrs by qRT-PCR analysis relative to control; assay type: functional; conditions: dose 50.0 µg/ml
Candida albicans [22] = experiment: Antibiofilm activity against fluconazole-resistant Candida albicans DAY185 assessed as reduction in mean biofilm thickness on bio-compatible PLGA surface coated with compound incubated for 24 hrs by COMSTAT analysis; assay type: functional, organism-based
Candida albicans [23] = experiment: Antibiofilm activity against fluconazole-resistant Candida albicans DAY185 assessed as reduction in substratum coverage on bio-compatible PLGA surface coated with compound at 5 ug/ml incubated for 24 hrs by COMSTAT analysis; assay type: functional, organism-based; conditions: dose 5.0 µg/ml
Candida albicans [24] = experiment: Antibiofilm activity against fluconazole-resistant Candida albicans DAY185 assessed as inhibition of biofilm formation at 10 to 20 ug/ml measured after 24 hrs by 2D/3D imaging analysis relative to control; assay type: functional; conditions: dose 10-20 µg/ml, at 10 to 20 µg/mL
Candida albicans [25] = experiment: Downregulation of ALS3 mRNA level in fluconazole-resistant Candida albicans DAY185 assessed as fold decrease at 50 ug/ml incubated for 6 hrs by qRT-PCR analysis relative to control; assay type: functional; conditions: dose 50.0 µg/ml
Candida albicans [26] = experiment: Antibiofilm activity against fluconazole-resistant Candida albicans DAY185 assessed as inhibition of biofilm formation at 50 ug/ml measured after 24 hrs by crystal violet staining based analysis relative to control; assay type: functional
Candida albicans [27] = experiment: Downregulation of ECE1 mRNA level in fluconazole-resistant Candida albicans DAY185 assessed as fold decrease at 50 ug/ml incubated for 6 hrs by qRT-PCR analysis relative to control; assay type: functional; conditions: dose 50.0 µg/ml
Candida albicans [28] = experiment: Inhibition of yeast to hypha transition in fluconazole-resistant Candida albicans DAY185 assessed as decrease in hyphal growth at 5 to 20 ug/ml measured after 24 hrs by SEM analysis; assay type: functional, organism-based; conditions: dose 5-20 µg/ml
Candida albicans [29] = experiment: Antibiofilm activity against fluconazole-resistant Candida albicans DAY185 assessed as reduction in overall biofilm mass on bio-compatible PLGA surface coated with compound at 5 to 10 ug/ml incubated for 24 hrs by CLSM analysis; assay type: functional, organism-based; conditions: dose 5-10 µg/ml
Candida albicans [30] = experiment: Additive antibiofilm activity against fluconazole-resistant Candida albicans DAY185 assessed as inhibition of biofilm formation at 5 ug/ml measured after 24 hrs in presence of BTZ by crystal violet staining based analysis relative to control; assay type: functional, organism-based; conditions: dose 5.0 µg/ml
Candida albicans [31] = experiment: Antibiofilm activity against fluconazole-resistant Candida albicans DAY185 assessed as reduction in biofilm mass on bio-compatible PLGA surface coated with compound incubated for 24 hrs by COMSTAT analysis; assay type: functional, organism-based
Candida albicans [32] = experiment: Additive antibiofilm activity against fluconazole-resistant Candida albicans DAY185 assessed as inhibition of biofilm formation at 5 ug/ml measured after 24 hrs in presence of AMB by crystal violet staining based analysis relative to control; assay type: functional, organism-based; conditions: dose 5.0 µg/ml
Candida albicans [33] = experiment: Antibiofilm activity against Candida albicans ATCC 10231 assessed as inhibition of biofilm formation by crystal violet staining based analysis; assay type: functional, organism-based
Candida albicans [34] = experiment: Antibiofilm activity against fluconazole-resistant Candida albicans DAY185 assessed as reduction in biofilm thickness on bio-compatible PLGA surface coated with compound at 5 to 10 ug/ml incubated for 24 hrs by CLSM analysis; assay type: functional, organism-based; conditions: dose 5-10 µg/ml

Which results are given for `Clc1nc(Cl)c2c(I)c[nH]c2n1`?
inhibition at 7 µg/mL (Candida albicans [1]): 100%; Activity (Brassica rapa): > 90%; inhibition (Candida albicans [2]): Active; inhibition (Candida albicans [3]): Dose-dependent-effect; fold change (FC) (Candida albicans [4]): 57; fold change (FC) (Candida albicans [5]): 10; inhibition (Candida albicans [6]): Active; fold change (FC) (Candida albicans [7]): 55; inhibition (Candida albicans [8]): Active; inhibition (Candida albicans [9]): Active; fold change (FC) (Candida albicans [10]): 138; inhibition ([Candida] auris [11]): Dose-dependent-effect; Activity (Candida albicans [12]): No effect; fold change (FC) (Candida albicans [13]): 58; inhibition (Candida albicans [14]): Active; inhibition (INH) (Candida albicans [15]): 100%; inhibition ([Candida] auris [16]): Dose-dependent-effect; inhibition (Candida albicans [17]): Active; fold change (FC) (Candida albicans [18]): 82; inhibition (Candida albicans [19]): Active; Significant Effect Even At Lower Concentration; Activity [20]: Toxic; fold change (FC) (Candida albicans [21]): 37; Activity (Candida albicans [22]): Dose-dependent-effect; Nearly Undetectable Levels Were Observed At 5 Ug/Ml; Activity (Candida albicans [23]): Active; inhibition (INH) (Candida albicans [24]): ~100%; fold change (FC) (Candida albicans [25]): 8; inhibition at 50 µg/mL (Candida albicans [26]): > 85%; fold change (FC) (Candida albicans [27]): 143; inhibition (Candida albicans [28]): Active; Activity (Candida albicans [29]): Active; More Pronounced Effects Were Observed At Higher Concentration; inhibition (Candida albicans [30]): Active; Activity (Candida albicans [31]): Dose-dependent-effect; Nearly Undetectable Levels Were Observed At 5 Ug/Ml; inhibition (Candida albicans [32]): Active; inhibition (Candida albicans [33]): Dose-dependent-effect; Activity (Candida albicans [34]): Active; More Pronounced Effects Were Observed At Higher Concentration
